According to patent publication US20160251402A1, “MICROPEPTIDES AND USE OF SAME FOR MODULATING GENE EXPRESSION” (UNIVERSITE PAUL SABATIER TOULOUSE III, priority 2013, published 2016):
“Also recorded” adds a separate entry of the source.

How the values were obtained:
[1] = tested on: AtmiR319a; assay: Accumulation of AtmiR319a in the model plant of tobacco; format: in vivo, Nicotiana benthamiana; settings: tobacco expressing AtmiR319a, overexpression of AtmiORF319a
Procedure: At present, AtmiPEP165a and AtmiPEP319a2, identified in Arabidopsis thaliana, have already been characterized.
(§1) The total RNA was extracted from roots of M. truncatula or from tobacco leaves using the extraction kit RNeasy Plant Mini Kit (Qiagen). The reverse transcription was performed using the reverse transcriptase SuperScript II (Invitrogen) starting from 500 ng of total RNA. Three repetitions (n=3) were carried out, each with two technical repetitions. Each experiment was repeated from two to three times. The amplifications by qPCR were carried out using a LightCycler 480 System thermocycler (Roche Diagnostics) by the method described in Lauressergues et al. (Plant J., 72(3): 512-22, 2012).
For the miPEPs 165a and 319a, the corresponding miORFs were cloned into pBIN19 by the method described in Combier et al. (Genes & Dev, 22: 1549-1559, 2008).
(§2) The composite plants having roots transformed with Agrobacterium rhizogenes were obtained by the method described in Boisson-Dernier et al. (Mol Plant-Microbe Interact, 18: 1269-1276, 2005). The transformed roots were verified and selected by observations of DsRED with a binocular fluorescence magnifier. The control roots correspond to roots transformed with A. rhizogenes not containing the pPEX-DsRED vector. Transformation of the tobacco leaves was carried out by the method described in Combier et al. (Genes & Dev, 22: 1549-1559, 2008).

[2] = tested on: AtmiR160b; assay: Relative expression of AtmiR160b in A. thaliana; format: in vivo, Arabidopsis thaliana; settings: plant in which AtmiPEP160b1 is overexpressed vs control plant
[3] = tested on: MtmiR171e; assay: Relative expression of MtmiR171e in M. truncatula; format: in vivo, Medicago truncatula; settings: plant in which MtmiPEP171e is overexpressed vs control plant
Procedure: as §1, §2

[4] = tested on: Arabidopsis thaliana; assay: Plant growth of Arabidopsis thaliana after 3 weeks of watering; format: in vivo; settings: watered with 0.1 μM of synthetic peptide, 3 weeks of growth, vs water
[5] = tested on: AtmiR319a; assay: Relative expression of AtmiR319a in A. thaliana (qRT-PCR); format: in vivo, Arabidopsis thaliana; settings: plant in which AtmiPEP319a1 is overexpressed vs control plant
[6] = tested on: MtmiR169d; assay: Relative expression of MtmiR169d in M. truncatula; format: in vivo, Medicago truncatula
Procedure: as §1

[7] = tested on: DmmiR8; assay: Relative expression of Pre-miR8 in transfected Drosophila melanogaster cells; format: cell-based
Procedure: S2 cells are cultured in a T75 flask in 12 mL of Schneider's medium (GIBCO), containing 1% of penicillin 100 U/mL and […] (Sigma) and 10% of decomplemented foetal calf serum (30 min at 56° C.). The transient transfections are carried out using the FuGENE® HD transfection kit (Roche), according to the recommendations. Conventionally, 1.5 million S2 cells, previously seeded in 6-well plates (3 ml of medium per well), are transfected with 250 ng of total plasmid DNA. The DNA is brought into contact with the Fugene (3 μl) in 100 μl of OPTIMEM (GIBCO). After 20 minutes, the transfection reagent formed is brought into contact with the cells in the culture medium. The RNA of the cells is extracted 66 h after transfection.

## MFQTLYLFIYIHTNILLLS (listed as Arabidopsis thaliana) [AtmiPEP319a2]
[1]
  accumulation of AtmiR319a: increase in the accumulation

## MFSPQ (listed as Arabidopsis thaliana) [AtmiPEP160b1]
[2]
  relative expression of AtmiR160b: increase in the relative expression of AtmiR160b; also recorded: induces an accumulation of AtmiR160b

## MMVFGKPKKAMLVRFNPKTDLHV (listed as Medicago truncatula) [MtmiPEP171e]
[3]
  relative expression of MtmiR171e: increase in the relative expression of MtmiR171e; also recorded: induces an accumulation of MtmiR171e

## MNIHTYHHLLFPSLVFHQSSDVPNALSLHIHTYEYIIVVIDPFRITLAFR [AtmiPEP319a1]
[4]
  plant growth: increases plant growth significantly
[5]
  relative expression of AtmiR319a: increase in the accumulation of AtmiR319a; also recorded: increase in the relative expression of AtmiR319a; also recorded: increase in the accumulation of miR319a

## MVKESFMERLKVR (listed as Medicago truncatula) [MtmiPEP169d]
[6]; overexpression of the miPEP in M. truncatula (as worded in Example 1B)
  accumulation of MtmiR169d: induces an accumulation of MtmiR169d
[6]; plant watered once a day with peptide at 0.1 μM vs control plant
  relative expression of MtmiR169d: increase in the relative expression of MtmiR169d

B1: MEPGFVFVLFPTHLSTQHTQREKSILVMGLNLQSAKQSDKQNSKERKKNTQINSQRIPYRQGGQCSKVLSP (peptide)
chain: MEPGFVFVLFPTHLSTQHTQREKSILVMGLNLQSAKQSDKQNSKERKKNTQINSQRIPYRQGGQCSKVLSP
modifications: Drosophila melanogaster
[7]; cells overexpressing DmmiPEP8 vs miPEP8 with mutated start codons
  relative expression of Pre-miR8: increases the expression of DmmiR8
[7]; cells overexpressing wild-type DmmiR8 vs DmmiR8 with mutated miPEP8 start codons
  relative expression of Pre-miR8: increases the expression of DmmiR8
